Data set [1] in a line: Solubility in water. It counts as physicochemical.
In data set [2] the test system is Pneumocystis carinii. Put plainly: Pneumocystis carinii pneumonia in immunosuppressed rats. The class given is in vivo, Sprague-Dawley rats. The following applies: eliminating P. carinii cysts in four days, dexasone-immunosuppressed rats, microscopic analysis of stained lung slides. Here is the method: In a representative study, the effectiveness of Compound A-1a was determined. Sprague-Dawley rats (weighing approximately 250 grams) were immunosuppressed with dexasone in the drinking water (2.0 mg/L) and maintained on a low protein diet for five weeks to induce the development of pneumocystis pneumonia from a latent infection. […] Six rats (weighing approximately 150 grams) were injected twice daily for four days intravenously (I.V.) via the tail vein with Compound A-1a in 0.25 ml of vehicle (distilled water). A vehicle control was also carried out. All animals continued to receive dexasone in the drinking water and low protein diet during the treatment period. At the completion of the treatment, all animals were sacrificed, the lungs were removed and processed, and the extent of disease determined by microscopic analysis of stained slides.
In a similar experiment, except that the rats were injected intraperitoneally (I.P.) twice daily for four days, the animals were sacrificed, the lungs removed and processed, and the extent of disease determined by microscopic analysis of stained slides.

Each structure is given as a SMILES string. Counter-ions that a name gives are not always drawn.

Consider `CCC(C)CC(C)CCCCCCCCC(=O)NC1CC(O)C(O)NC(=O)C2C(O)CCN2C(=O)C(C(O)CC(N)=O)NC(=O)C(C(O)C(O)c2ccc(OP(=O)(O)O)cc2)NC(=O)C2CC(O)CN2C(=O)C(C(C)O)NC1=O` (stereo not shown) [Compound A-1a, 1-[4,5-dihydroxy-N2-(10,12-dimethyl-1-oxotetradecyl)-ornithine-4-[3,4-dihydroxy-4′-O-phosphoryl-homotyrosine]-5-[3-hydroxyglutamine]-6-[3-hydroxyproline]-echinocandin B disodium salt], for which the solubility in water in data set [1] was above 40 mg/mL. The ED₉₀ result in data set [2] (injected twice daily for four days intravenously (I.V.) via the tail vein) is “approximately 0.6 mg/kg”.

Consider `CCC(C)CC(C)CCCCCCCCC(=O)NC1CC(O)CNC(=O)C2C(O)CCN2C(=O)C(C(O)CC(N)=O)NC(=O)C(C(O)C(O)c2ccc(OP(=O)(O)O)cc2)NC(=O)C2CC(O)CN2C(=O)C(C(C)O)NC1=O` (stereo not shown) [Compound A-2a, 1-[4-hydroxy-N2-(10,12-dimethyl-1-oxotetradecyl)-ornithine]-4-[3-hydroxy-4′-O-phosphoryl-homotyrosine]-5-[3-hydroxyglutamine]-6-[3-hydroxyproline]echinocandin B disodium salt], for which the solubility in data set [1] was above 85 mg/mL. Besides, in data set [2] (injected intraperitoneally (I.P.) twice daily for four days), the ED₉₀ entry is listed as “approximately 0.6 mg/kg”.

The term solubility denotes how much of the substance goes into solution per volume. A high value points to a readily soluble substance.

The values above are taken from patent EP0448343A2, “Lipopeptide derivatives” (MERCK & CO. INC., priority 1990, dated 1991).
